According to patent publication US11491157B2, “Cycloalkyl substituted pyrazolopyrimidines having activity against RSV” (priority 2018, dated 2022):
Structures can show the parent of a compound that is named as a salt.

What was measured:
[1] = in vitro; details: human
Description: (§1) Black 384-well clear-bottom microtiter plates (Corning, Amsterdam, The Netherlands) were filled via acoustic drop ejection using the echo liquid handler (Labcyte, Sunnyvale, Calif.). 200 nL of compound stock solutions (100% DMSO) were transferred to the assay plates. 9 serial 4-fold dilutions of compound were made, creating per quadrant the same compound concentration. The assay was initiated by adding 10 μL of culture medium to each well (RPMI medium without phenol red, 10% FBS-heat inactivated, 0.04% gentamycin (50 mg/mL). All addition steps are done by using a multidrop dispenser (Thermo Scientific, Erembodegem, Belgium). Next, rgRSV224 virus (MOI=1) diluted in culture medium was added to the plates. rgRSV224 virus is an engineered virus that includes an additional GFP gene (Hallak L K, Spillmann D, Collins P L, Peeples M E. Glycosaminoglycan sulfation requirements for respiratory syncytial virus infection; Journal of virology (2000), 74(22), 10508-13) and was in-licensed from the NIH (Bethesda, Md., USA). Finally, 20 μL of a HeLa cell suspension (3,000 cells/well) were plated. Medium, virus- and mock-infected controls were included in each test. The wells contain 0.05% DMSO per volume. Cells were incubated at 37° C. in a 5% CO2 atmosphere. Three days post-virus exposure, viral replication was quantified by measuring GFP expression in the cells by an in house developed MSM laser microscope (Tibotec, Beerse, Belgium). The EC50 was defined as the 50% inhibitory concentration for GFP expression. In parallel, compounds were incubated for three days in a set of white 384-well microtiter plates (Corning) and the cytotoxicity of compounds in HeLa cells was determined by measuring the ATP content of the cells using the ATPlite kit (Perkin Elmer, Zaventem, Belgium) according to the manufacturer's instructions. The CC50 was defined as the 50% concentration for cytotoxicity.

[2] = system: rgRSV224 virus; test: Antiviral activity: rgRSV224 (GFP) replication in HeLa cells; details: human respiratory syncytial virus, 72 h, read-out: RSV HELA EC50
Description: as §1

Compound: C[C@@H]1c2ccccc2CCN1C(=O)c1cc(C2CC2)n2nc(-c3ccc([C@@H]4C[C@H]4c4cc(=O)[nH]o4)cc3F)cc2n1 [Compound 2, 5-[(1R,2R)-2-(4-{7-Cyclopropyl-5-[(1R)-1-methyl-1,2,3,4-tetrahydroisoquinoline-2-carbonyl]pyrazolo[1,5-a]pyrimidin-2-yl}-3-fluorophenyl)cyclopropyl]-2,3-dihydro-1,2-oxazol-3-one]
- CC50 at 3 days [1]: 42500 nM
- EC50 [2]: 84 nM

Compound: C[C@@H]1c2ccccc2CCN1C(=O)c1cc(C2CC2)n2nc(-c3ccc([C@H]4C[C@@H]4C(=O)N4CCCC4)cc3F)cc2n1 [Compound 23, (1R)-2-(7-Cyclopropyl-2-{2-fluoro-4-[(1S,2S)-2-(pyrrolidine-1-carbonyl)cyclopropyl]-phenyl}pyrazolo[1,5-a]pyrimidine-5-carbonyl)-1-methyl-1,2,3,4-tetrahydroisoquinoline]
- CC50 at 3 days [1]: 16900 nM
- EC50 [2]: 427 nM

Compound: C[C@@H]1c2ccccc2CCN1C(=O)c1cc(C2CC2)n2nc(-c3ccc([C@H]4C[C@@H]4C(=O)NC4(C)CC4)cc3F)cc2n1 [Compound 20, (1S,2S)-2-(4-{7-Cyclopropyl-5-[(1R)-1-methyl-1,2,3,4-tetrahydroisoquinoline-2-carbonyl]-pyrazolo[1,5-a]pyrimidin-2-yl}-3-fluorophenyl)-N-(1-methylcyclopropyl)cyclopropane-1-carboxamide]
- CC50 at 3 days [1]: > 10000 nM
- EC50 [2]: 287 nM

Compound: C[C@@H]1c2ccccc2CCN1C(=O)c1cc(C2CC2)n2nc(-c3ccc([C@H]4C[C@@H]4c4noc(=O)[nH]4)cc3F)cc2n1 [Compound 5, 3-[(1S,2S)-2-(4-{7-Cyclopropyl-5-[(1R)-1-methyl-1,2,3,4-tetrahydroisoquinoline-2-carbonyl]pyrazolo[1,5-a]pyrimidin-2-yl}-3-fluorophenyl)cyclopropyl]-4,5-dihydro-1,2,4-oxadiazol-5-one]
- CC50 at 3 days [1]: 41800 nM
- EC50 [2]: 98 nM

Compound: C[C@@H]1c2ccccc2CCN1C(=O)c1cc(-c2ccccc2)n2nc(-c3ccc([C@@H]4C[C@H]4C(=O)NS(C)(=O)=O)cc3F)cc2n1 (single isomer, unassigned) [Compound 32, (1*R,2*R)-2-(3-Fluoro-4-{5-[(1R)-1-methyl-1,2,3,4-tetrahydroisoquinoline-2-carbonyl]-7-phenylpyrazolo[1,5-a]pyrimidin-2-yl}phenyl)-N-methanesulfonyl-cyclopropane-1-carboxamide; propan-2-amine salt]
- CC50 at 3 days [1]: 37300 nM
- EC50 [2]: 61 nM

Compound: C[C@@H]1c2ccccc2CCN1C(=O)c1cc(C2CC2)n2nc(-c3ccc([C@H]4C[C@H](COC(N)=O)C4)cc3F)cc2n1 [Compound 43, [trans-3-(4-{7-Cyclopropyl-5-[(1R)-1-methyl-1,2,3,4-tetrahydroisoquinoline-2-carbonyl]pyrazolo[1,5-a]pyrimidin-2-yl}-3-fluorophenyl)cyclobutyl]methyl carbamate]
- CC50 at 3 days [1]: > 100000 nM
- EC50 [2]: 307 nM

Compound: C[C@@H]1c2ccccc2CCN1C(=O)c1cc(C2CC2)n2nc(-c3ccc([C@H]4C[C@@H]4O)cc3F)cc2n1 [Compound 38, (1S,2R)-2-(4-{7-Cyclopropyl-5-[(1R)-1-methyl-1,2,3,4-tetrahydroisoquinoline-2-carbonyl]pyrazolo[1,5-a]pyrimidin-2-yl}-3-fluorophenyl)cyclopropan-1-ol]
- CC50 at 3 days [1]: 50400 nM
- EC50 [2]: 159 nM

Compound: CNC(=O)C[C@H]1C[C@H](c2ccc(-c3cc4nc(C(=O)N5CCc6ccccc6[C@H]5C)cc(C5CC5)n4n3)c(F)c2)C1 [Compound 47, N-methyl-2-[trans-3-(4-{7-cyclopropyl-5-[(1R)-1-methyl-1,2,3,4-tetrahydroisoquinoline-2-carbonyl]pyrazolo[1,5-a]pyrimidin-2-yl}-3-fluorophenyl)cyclobutyl]acetamide]
- CC50 at 3 days [1]: 25800 nM
- EC50 [2]: 148 nM
